The target in one experiment is T1, human IR(B) (Homo sapiens, UniProt P06213).
T1 construct: expressed in transfected cells
Briefly: Insulin Receptor Phosphorylation Assay (MSD pIR assay; Methods A and B). To be noted: Method B: IR phosphorylation assay, 384-well with automated liquid dispense; CHO cells expressing human IR(B); read-out: IR Activation IP†. It is filed as cell-based. As to the method: Insulin Receptor Phosphorylation Assays were performed as follows.
Cells were harvested and frozen in aliquots for use in the MSD pIR assay. Briefly, the frozen cells were plated in either 96-well (40,000 cells/well, Method A) or 384-well (10,000 cells/well, Method B) clear tissue culture plates and allowed to recover. IOC molecules at the appropriate concentrations were added and the cells incubated for 8 min at 37° C. The media was aspirated and chilled MSD cell lysis buffer was added as per MSD kit instructions. The cells were lysed on ice for 40 min and the lysate then mixed for 10 minutes at room temperature. The lysate was transferred to the MSD kit pIR detection plates. The remainder of the assay was carried out following the MSD kit recommended protocol.

The target in experiment [1] is T2, Human macrophage mannose receptor 1 (MRC1) (Homo sapiens, UniProt P22897).
T2 sequence (P22897 19-1456): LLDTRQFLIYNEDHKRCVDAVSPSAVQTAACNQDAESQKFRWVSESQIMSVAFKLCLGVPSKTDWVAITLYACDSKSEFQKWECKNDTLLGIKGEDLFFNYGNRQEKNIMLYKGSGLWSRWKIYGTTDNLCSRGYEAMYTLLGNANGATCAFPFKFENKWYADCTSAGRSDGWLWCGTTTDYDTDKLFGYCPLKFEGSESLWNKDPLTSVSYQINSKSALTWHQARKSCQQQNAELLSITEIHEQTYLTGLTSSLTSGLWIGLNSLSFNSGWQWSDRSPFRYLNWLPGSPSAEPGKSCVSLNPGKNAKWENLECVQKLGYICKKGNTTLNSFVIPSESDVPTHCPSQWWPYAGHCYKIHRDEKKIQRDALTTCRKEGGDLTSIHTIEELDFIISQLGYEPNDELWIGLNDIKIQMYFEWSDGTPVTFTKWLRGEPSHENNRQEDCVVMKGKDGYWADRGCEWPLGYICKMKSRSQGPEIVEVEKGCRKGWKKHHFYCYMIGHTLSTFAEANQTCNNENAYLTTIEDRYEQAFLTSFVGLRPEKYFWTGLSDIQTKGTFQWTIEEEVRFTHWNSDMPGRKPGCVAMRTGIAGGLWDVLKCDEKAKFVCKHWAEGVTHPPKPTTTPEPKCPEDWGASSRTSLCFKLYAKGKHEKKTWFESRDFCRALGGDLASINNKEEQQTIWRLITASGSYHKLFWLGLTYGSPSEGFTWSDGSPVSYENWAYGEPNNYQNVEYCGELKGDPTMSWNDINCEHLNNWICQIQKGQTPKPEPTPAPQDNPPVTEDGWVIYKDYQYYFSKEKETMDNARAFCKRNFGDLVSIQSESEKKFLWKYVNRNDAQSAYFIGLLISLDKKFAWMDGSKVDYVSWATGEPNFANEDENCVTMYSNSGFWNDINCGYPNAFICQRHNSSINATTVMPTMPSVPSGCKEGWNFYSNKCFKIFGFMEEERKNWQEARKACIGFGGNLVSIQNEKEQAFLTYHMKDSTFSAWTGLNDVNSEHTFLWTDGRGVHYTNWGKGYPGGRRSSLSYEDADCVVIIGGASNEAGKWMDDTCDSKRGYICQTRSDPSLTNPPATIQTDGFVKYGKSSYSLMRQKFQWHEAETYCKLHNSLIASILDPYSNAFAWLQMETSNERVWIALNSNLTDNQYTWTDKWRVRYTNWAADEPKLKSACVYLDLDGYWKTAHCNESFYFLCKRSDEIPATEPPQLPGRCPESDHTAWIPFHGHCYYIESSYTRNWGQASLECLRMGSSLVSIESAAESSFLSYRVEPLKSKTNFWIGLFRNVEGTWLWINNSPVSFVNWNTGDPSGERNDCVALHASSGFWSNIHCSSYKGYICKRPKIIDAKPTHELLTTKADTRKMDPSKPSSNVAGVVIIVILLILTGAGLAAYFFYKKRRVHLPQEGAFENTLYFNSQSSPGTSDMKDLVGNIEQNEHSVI
Description: MRC1 competition binding assay with Eu-labeled mannosylated-BSA (Methods E and F). As to conditions: Method F: MRC1 assay in a 384-well plate; read-out: MRC1 Binding IP‡. Here is the method:
Human macrophage mannose receptor 1 (MRC1) Binding Assays were performed as follows.
The competition binding assay for MRC1 utilized a ligand, mannosylated-BSA labeled with the DELFIA Eu-N1-ITC reagent, as reported in the literature. Assay was performed either in a 96-well plate with 100 μL well volume (Method E) or in a 384-well plate with 25 μL well volume (Method F). […] The antibody was incubated in the plate for 1 hr at room temperature with shaking. The plate was washed with wash buffer 3-5 times followed by addition of MRC1 (2 ng/μl final concentration) in PBS containing 1% stabilizer BSA. The plate was incubated at room temperature with gentle shaking for 1 hr. The plate was washed three times with wash buffer. The IOC molecules in 12.5 μL (or 50 μL depending on plate format) buffer at appropriate concentrations were added followed by 12.5 μL (or 50 μL) Eu-mannosylated-BSA (0.1 nM final concentration) in 50 mM Tris, pH 7.5 containing 100 mM NaCl, 5 mM CaCl2, 1 mM MgCl2 and 0.2% stabilizer BSA. The plate was incubated for 2 hrs at room temperature with shaking followed by washing three times with wash buffer. Perkin Elmer Eu-inducer reagent was added and incubated for 30 min at room temperature prior to detection of the Eu signal (Excitation=340 nm: Emission=615 nm).

Molecules are shown by their SMILES.

Drawing on patent US11041009B2, “Glucose responsive insulin comprising a tri-valent sugar cluster for treatment of diabetes” (Merck Sharp & Dohme Corp., priority 2017, dated 2021), this text covers EC50 and IC50 for three compounds.

T1 sequence (P06213 28-758 limits assumed): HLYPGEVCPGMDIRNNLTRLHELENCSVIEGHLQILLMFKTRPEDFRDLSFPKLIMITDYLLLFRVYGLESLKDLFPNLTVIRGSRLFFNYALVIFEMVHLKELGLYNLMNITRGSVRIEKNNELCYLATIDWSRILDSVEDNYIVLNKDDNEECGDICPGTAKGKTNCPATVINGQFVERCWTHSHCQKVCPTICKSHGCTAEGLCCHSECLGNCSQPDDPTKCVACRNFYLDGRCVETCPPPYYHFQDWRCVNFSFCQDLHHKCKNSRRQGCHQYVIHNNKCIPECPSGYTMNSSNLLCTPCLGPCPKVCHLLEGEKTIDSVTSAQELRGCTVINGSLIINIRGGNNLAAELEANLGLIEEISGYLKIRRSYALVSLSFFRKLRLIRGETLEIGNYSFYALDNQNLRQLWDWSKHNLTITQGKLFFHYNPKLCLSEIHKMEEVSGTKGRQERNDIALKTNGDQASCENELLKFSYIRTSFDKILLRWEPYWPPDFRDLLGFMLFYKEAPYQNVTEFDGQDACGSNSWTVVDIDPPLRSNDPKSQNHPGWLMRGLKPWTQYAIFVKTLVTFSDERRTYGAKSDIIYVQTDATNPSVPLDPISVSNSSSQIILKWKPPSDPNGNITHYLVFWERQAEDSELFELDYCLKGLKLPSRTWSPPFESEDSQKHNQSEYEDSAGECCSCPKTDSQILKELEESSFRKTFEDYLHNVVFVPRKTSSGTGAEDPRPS
T1 sequence (P06213 763-1382 partner limits assumed): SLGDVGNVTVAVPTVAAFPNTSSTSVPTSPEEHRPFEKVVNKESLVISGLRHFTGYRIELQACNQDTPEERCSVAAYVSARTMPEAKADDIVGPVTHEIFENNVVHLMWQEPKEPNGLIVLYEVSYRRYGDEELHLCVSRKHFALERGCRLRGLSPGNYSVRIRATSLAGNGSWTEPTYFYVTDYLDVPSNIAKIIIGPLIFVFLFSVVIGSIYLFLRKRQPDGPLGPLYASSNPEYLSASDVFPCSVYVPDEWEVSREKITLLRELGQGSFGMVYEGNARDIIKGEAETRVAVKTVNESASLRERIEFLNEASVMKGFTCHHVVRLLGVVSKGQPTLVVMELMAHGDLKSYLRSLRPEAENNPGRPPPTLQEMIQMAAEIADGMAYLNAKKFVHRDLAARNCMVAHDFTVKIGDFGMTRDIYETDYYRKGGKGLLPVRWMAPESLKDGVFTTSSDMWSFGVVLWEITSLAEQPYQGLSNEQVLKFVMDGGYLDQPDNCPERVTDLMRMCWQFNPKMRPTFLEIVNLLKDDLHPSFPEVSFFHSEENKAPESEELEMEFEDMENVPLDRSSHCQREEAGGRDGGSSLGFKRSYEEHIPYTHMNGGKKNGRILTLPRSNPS

As for `CC[C@H](C)[C@H](NC(=O)CN)C(=O)N[C@H](C(=O)N[C@@H](CCC(=O)O)C(=O)N[C@@H](CCC(N)=O)C(=O)N[C@H]1CSSC[C@@H]2NC(=O)[C@H]([C@@H](C)CC)NC(=O)[C@H](CO)NC(=O)[C@H]([C@@H](C)O)NC(=O)[C@H](CSSC[C@H](NC(=O)[C@H](CC(C)C)NC(=O)[C@H](Cc3c[nH]cn3)NC(=O)[C@H](CCC(N)=O)NC(=O)[C@H](CC(N)=O)NC(=O)[C@@H](NC(=O)[C@H](Cc3ccccc3)NC(=O)CCCCC(=O)N(CC(=O)NCCO[C@@H]3O[C@@H](C)[C@@H](O)[C@@H](O)[C@@H]3O)CC(=O)N(CCO[C@H]3O[C@H](CO)[C@@H](O)[C@H](O)[C@@H]3O)CCO[C@H]3O[C@H](CO)[C@@H](O)[C@H](O)[C@@H]3O)C(C)C)C(=O)NCC(=O)N[C@@H](CO)C(=O)N[C@@H](Cc3c[nH]cn3)C(=O)N[C@@H](CC(C)C)C(=O)N[C@@H](C(C)C)C(=O)N[C@@H](CCC(=O)O)C(=O)N[C@@H](C)C(=O)N[C@@H](CC(C)C)C(=O)N[C@@H](Cc3ccc(O)cc3)C(=O)N[C@@H](CC(C)C)C(=O)N[C@@H](C(C)C)C(=O)N[C@H](C(=O)NCC(=O)N[C@@H](CCC(=O)O)C(=O)N[C@@H](CCCNC(=N)N)C(=O)NCC(=O)N[C@@H](Cc3ccccc3)C(=O)N[C@@H](Cc3ccccc3)C(=O)N[C@@H](Cc3ccc(O)cc3)C(=O)N[C@H](C(=O)N3CCC[C@H]3C(=O)N[C@@H](CCCCNC(=O)CCCCC(=O)N(CC(=O)NCCO[C@@H]3O[C@@H](C)[C@@H](O)[C@@H](O)[C@@H]3O)CC(=O)N(CCO[C@H]3O[C@H](CO)[C@@H](O)[C@H](O)[C@@H]3O)CCO[C@H]3O[C@H](CO)[C@@H](O)[C@H](O)[C@@H]3O)C(=O)N[C@H](C(=O)O)[C@@H](C)O)[C@@H](C)O)CSSC[C@@H](C(=O)N[C@@H](CC(N)=O)C(=O)O)NC(=O)[C@H](Cc3ccc(O)cc3)NC(=O)[C@H](CC(N)=O)NC(=O)[C@H](CCC(=O)O)NC(=O)[C@H](CC(C)C)NC(=O)[C@H](CCC(N)=O)NC(=O)[C@H](Cc3ccc(O)cc3)NC(=O)[C@H](CC(C)C)NC(=O)[C@H](CO)NC2=O)NC1=O)C(C)C` [IOC-62], at human IR(B), the EC50 was determined as 0.77 nM. The IC50 in experiment [1] was 5.12 nM.

For the compound `CC[C@H](C)[C@H](NC(=O)CN)C(=O)N[C@H](C(=O)N[C@@H](CCC(=O)O)C(=O)N[C@@H](CCC(N)=O)C(=O)N[C@H]1CSSC[C@@H]2NC(=O)[C@H]([C@@H](C)CC)NC(=O)[C@H](CO)NC(=O)[C@H]([C@@H](C)O)NC(=O)[C@H](CSSC[C@H](NC(=O)[C@H](CC(C)C)NC(=O)[C@H](Cc3c[nH]cn3)NC(=O)[C@H](CCC(N)=O)NC(=O)[C@H](CC(N)=O)NC(=O)[C@@H](NC(=O)[C@H](Cc3ccccc3)NC(=O)CCCCC(=O)N(CC(=O)NCCO[C@H]3O[C@H](CO)[C@@H](O)[C@H](O)[C@@H]3O)CC(=O)N(CCO[C@H]3O[C@H](CO)[C@@H](O)[C@H](O)[C@@H]3O)CCO[C@H]3O[C@H](CO)[C@@H](O)[C@H](O)[C@@H]3O)C(C)C)C(=O)NCC(=O)N[C@@H](CO)C(=O)N[C@@H](Cc3c[nH]cn3)C(=O)N[C@@H](CC(C)C)C(=O)N[C@@H](C(C)C)C(=O)N[C@@H](CCC(=O)O)C(=O)N[C@@H](C)C(=O)N[C@@H](CC(C)C)C(=O)N[C@@H](Cc3ccc(O)cc3)C(=O)N[C@@H](CC(C)C)C(=O)N[C@@H](C(C)C)C(=O)N[C@H](C(=O)NCC(=O)N[C@@H](CCC(=O)O)C(=O)N[C@@H](CCCNC(=N)N)C(=O)NCC(=O)N[C@@H](Cc3ccccc3)C(=O)N[C@@H](Cc3ccccc3)C(=O)N[C@@H](Cc3ccc(O)cc3)C(=O)N[C@H](C(=O)N3CCC[C@H]3C(=O)N[C@@H](CCCCNC(=O)CCCCC(=O)N(CC(=O)NCCO[C@H]3O[C@H](CO)[C@@H](O)[C@H](O)[C@@H]3O)CC(=O)N(CCO[C@H]3O[C@H](CO)[C@@H](O)[C@H](O)[C@@H]3O)CCO[C@H]3O[C@H](CO)[C@@H](O)[C@H](O)[C@@H]3O)C(=O)N[C@H](C(=O)O)[C@@H](C)O)[C@@H](C)O)CSSC[C@@H](C(=O)N[C@@H](CC(N)=O)C(=O)O)NC(=O)[C@H](Cc3ccc(O)cc3)NC(=O)[C@H](CC(N)=O)NC(=O)[C@H](CCC(=O)O)NC(=O)[C@H](CC(C)C)NC(=O)[C@H](CCC(N)=O)NC(=O)[C@H](Cc3ccc(O)cc3)NC(=O)[C@H](CC(C)C)NC(=O)[C@H](CO)NC2=O)NC1=O)C(C)C` [IOC-61], at human IR(B), the EC50 was found to be 1.13 nM. Also, in experiment [1], the IC50 was 17.9 nM.

Take `CC[C@H](C)[C@H](NC(=O)CNC(=O)CCCCC(=O)N(CC(=O)NCCO[C@H]1O[C@H](CO)[C@@H](O)[C@H](O)[C@@H]1O)CC(=O)N(CCO[C@H]1O[C@H](CO)[C@@H](O)[C@H](O)[C@@H]1O)CCO[C@H]1O[C@H](CO)[C@@H](O)[C@H](O)[C@@H]1O)C(=O)N[C@H](C(=O)N[C@@H](CCC(=O)O)C(=O)N[C@@H](CCC(N)=O)C(=O)N[C@H]1CSSC[C@@H]2NC(=O)[C@H]([C@@H](C)CC)NC(=O)[C@H](CO)NC(=O)[C@H]([C@@H](C)O)NC(=O)[C@H](CSSC[C@H](NC(=O)[C@H](CC(C)C)NC(=O)[C@H](Cc3c[nH]cn3)NC(=O)[C@H](CCC(N)=O)NC(=O)[C@H](CC(N)=O)NC(=O)[C@@H](NC(=O)[C@@H](N)Cc3ccccc3)C(C)C)C(=O)NCC(=O)N[C@@H](CO)C(=O)N[C@@H](Cc3c[nH]cn3)C(=O)N[C@@H](CC(C)C)C(=O)N[C@@H](C(C)C)C(=O)N[C@@H](CCC(=O)O)C(=O)N[C@@H](C)C(=O)N[C@@H](CC(C)C)C(=O)N[C@@H](Cc3ccc(O)cc3)C(=O)N[C@@H](CC(C)C)C(=O)N[C@@H](C(C)C)C(=O)N[C@H](C(=O)NCC(=O)N[C@@H](CCC(=O)O)C(=O)N[C@@H](CCCNC(=N)N)C(=O)NCC(=O)N[C@@H](Cc3ccccc3)C(=O)N[C@@H](Cc3ccccc3)C(=O)N[C@@H](Cc3ccc(O)cc3)C(=O)N[C@H](C(=O)N3CCC[C@H]3C(=O)N[C@@H](CCCCNC(=O)CCCCC(=O)N(CC(=O)NCCO[C@H]3O[C@H](CO)[C@@H](O)[C@H](O)[C@@H]3O)CC(=O)N(CCO[C@H]3O[C@H](CO)[C@@H](O)[C@H](O)[C@@H]3O)CCO[C@H]3O[C@H](CO)[C@@H](O)[C@H](O)[C@@H]3O)C(=O)N[C@H](C(=O)O)[C@@H](C)O)[C@@H](C)O)CSSC[C@@H](C(=O)N[C@@H](CC(N)=O)C(=O)O)NC(=O)[C@H](Cc3ccc(O)cc3)NC(=O)[C@H](CC(N)=O)NC(=O)[C@H](CCC(=O)O)NC(=O)[C@H](CC(C)C)NC(=O)[C@H](CCC(N)=O)NC(=O)[C@H](Cc3ccc(O)cc3)NC(=O)[C@H](CC(C)C)NC(=O)[C@H](CO)NC2=O)NC1=O)C(C)C` [IOC-60]: the EC50 at human IR(B) was 1.85 nM. The IC50 in experiment [1] is 33.1 nM.
